Experimental data: US9399649B2, “Compounds for treating spinal muscular atrophy” (PTC Therapeutics Inc., priority 2012, dated 2016)

How the values were obtained:
[1] = tested on: full length and Δ7 SMN2 mRNA; assay: Endogenous SMN2 mRNA end-point semi-quantitative RT-PCR splicing assay in cultured cells; format: cell-based, human; settings: Type 1 SMA patient fibroblasts (GM03813), increasing concentrations, 24 hr, FIG. 5
Procedure: The endpoint reverse transcription-PCR splicing assay is used to visualize and quantify the levels of the full length and Δ7 SMN2 mRNA in primary cells and cell lines containing the SMN2 gene treated with a test compound.
GM03813 SMA patient cells (5,000 cells/well) are seeded in 200 μL of cell culture medium (DMEM plus 10% FBS) in 96-well flat-bottom plates and the plate is immediately swirled to ensure proper dispersal of cells, forming an even monolayer of cells. Cells are allowed to attach for at least 4-6 hrs. Test compounds are serially diluted 3.16-fold in 100% DMSO to generate a 7-point concentration curve. A solution of test compound (1 μL, 200× in DMSO) is added to each test well and 1 μL DMSO is added to each control well. The plate is incubated for 24 hrs in a cell culture incubator (37° C., 5% CO2, 100% relative humidity). The cells are then lysed in Cells-To-Ct lysis buffer and the lysate is stored at 80° C.
SMN FL and Δ7 mRNA are identified using the following primers in Table 6. These primers hybridize to a nucleotide sequence in exon 6 (SMN Forward C, SEQ ID NO. 11) (nucleotide 43 to nucleotide 63) and exon 8 (SMN Reverse C, SEQ ID NO. 12) (nucleotide 51 to nucleotide 73) common to human SMN1 and SMN2 mRNA. Since the SMA patient cells used in Example 4 contain only the SMN2 gene, RT-PCR can visualize and quantify only SMN2 full-length and SMN2 Δ7 mRNA.
To synthesize cDNA, 5 μL of lysate, 4 μL of 5× iScript reaction mix, 1 μL of reverse transcriptase, and 10 μL of water are combined and incubated 5 min at 25° C. followed by 30 min at 42° C., followed by 5 min at 85° C. The cDNA solution is stored at −20° C.
To perform endpoint PCR, 5 μL of cDNA, 0.2 μL of 100 μM forward primer, 0.2 μL of 100 μM reverse primer, and 22.5 μL of polymerase super mix are combined in a 96 well semiskirted PCR plate. PCR is carried out at the following temperatures for the indicated time: Step 1: 94° C. (2 min), Step 2: 94° C. (30 sec), Step 3: 55° C. (30 sec), Step 4: 68° C. (1 min), then repeat Steps 2 to 4 for a total of 33 cycles, then hold at 4° C.
10 μL of each PCR sample is electrophoretically separated on a 2% agarose E-gel for 14 minutes stained with double-stranded DNA (dsDNA) staining reagents (e.g., ethidium bromide) and visualized using a gel imager.

[2] = tested on: Smn protein; assay: Smn protein assay in tissues of adult C/C-allele SMA mice; format: in vivo; settings: 10 mg/kg BID orally for 10 days, brain, spinal cord, muscle and liver, relative to vehicle group, FIG. 11
Procedure: This Smn protein assay compares tissues from test compound treated mice with those from DMSO vehicle treated mice to determine the increase in levels of Smn protein produced from the human SMN2 gene.
The tissue samples in Safe-Lock tubes are weighed and the volume of RIPA buffer containing the protease inhibitor cocktail is added based on the weight to volume ratios for each type of tissue: Brain (50 mgmL), Muscle (50 mgmL) and Spinal Cord (25 mgmL).
Tissues are homogenized using the TissueLyzer by bead milling. 5 mm stainless steel beads are added to the sample and shaken vigorously for 5 minutes at 30 Hz in the TissueLyzer. […] Fluorescence for each well of the plate at 665 nm and 620 nm is measured on an EnVision multilabel plate reader (Perkin-Elmer). The total protein in the tissue homogenate is measured using the BCA assay according to the manufacturer's protocol.
The normalized fluorescence signal is calculated for each sample, Blank and vehicle control well by dividing the signal at 665 nm by the signal at 620 nm. Normalizing the signal accounts for possible fluorescence quenching due to the matrix effect of the tissue homogenate. […] The ΔF value for each tissue sample well is divided by the total protein quantity (determined using the BCA assay) for that tissue sample. […]

[3] = tested on: SMA Δ7 homozygous knockout mice; assay: Righting reflex in neonatal Δ7 SMA mice; format: in vivo; settings: IP QD from PND 3, measured PND 10, 14 and 18, FIG. 14
Procedure: The functional change in righting reflex of neonatal SMA mice is used to determine whether treatment with a test compound improves righting reflex.
SMA Δ7 homozygous knockout mice are dosed intraperitoneally (IP) with test compound or vehicle (100% DMSO) QD from PND 3 until the dose regimen is switched to an oral dose BID in 0.5% hydroxypropylmethyl cellulose (HPMC) with 0.1% Tween-80 at a dose 3.16-fold higher than the dose used for IP. The righting reflex time is measured as the time taken by a mouse to flip over onto its feet after being laid on its back. Righting reflex is measured five times for each mouse (allowing a maximal time of 30 sec for each try) with 5 minutes between each measurement. The righting reflex time for SMA Δ7 homozygous knockout mice treated with test compound or vehicle and age-matched heterozygous mice is measured on PND 10, 14 and 18 and plotted.

| Structure (SMILES) | SMN2 FL mRNA (gel band) [1] | SMN2 Δ7 mRNA (gel band) [1] | total protein normalized Smn level in tissues [2] | righting reflex [3] |
| --- | --- | --- | --- | --- |
| Cc1cn2cc(-c3cc4ccc(N5CCN(C)CC5)cc4c(=O)o3)nc2c(C)n1 [Cpd 65, 3-(6,8-dimethylimidazo[1,2-a]pyrazin-2-yl)-7-(4-methylpiperazin-1-yl)-1H-isochromen-1-one] | progressively more SMN2 FL mRNA | less SMN2 Δ7 mRNA | increased in brain, spinal cord, muscle and liver tissues | improved compared to vehicle treated mice |
| Cc1cn2cc(-c3cc4ccc(N5CCN6CCC[C@H]6C5)cc4c(=O)o3)nc2c(C)n1 [Cpd 69, 3-(6,8-dimethylimidazo[1,2-a]pyrazin-2-yl)-7-[(8aS)-hexahydropyrrolo[1,2-a]pyrazin-2(1H)-yl]-1H-isochromen-1-one] | progressively more SMN2 FL mRNA | less SMN2 Δ7 mRNA | increased in brain, spinal cord, muscle and liver tissues | improved compared to vehicle treated mice |
